Measured values: Sander's compilation of Henry's law constants

Experiments:
[1] = Henry solubility constant Hcp at 298.15 K (mol/(m3 Pa))
[2] = Henry solubility constant Hcp at 293 K (mol/(m3 Pa))
[3] = reference: Yurteri et al. (1987)
[4] = reference: De Maagd et al. (1998)
[5] = reference: Wolfenden and Williams (1983)
[6] = reference: Kames and Schurath (1995)
[7] = reference: Schuhfried et al. (2015)
[8] = reference: Murphy et al. (1983a)
[9] = reference: Rochester and Symonds (1973)
[10] = reference: Charles and Destaillats (2005)

NCCO [ethanolamine]
Henry solubility constant Hcp ([1]; reference: Kim et al. (2008)): 4200 | Henry solubility constant Hcp at 293 K ([2]; reference: Bone et al. (1983)): 60000

OBr [hypobromous acid]
Henry solubility constant Hcp at 293 K ([2]; reference: Blatchley et al. (1992)): > 19 | Henry solubility constant Hcp at 293 K ([2]; reference: McCoy et al. (1990)): 19

Clc1ccc(Cl)cc1 [1,4-dichlorobenzene]
Henry solubility constant Hcp ([1]; reference: Li et al. (2008)): 0.0033 | Henry solubility constant Hcp ([1]; reference: Warner et al. (1980)): 0.0036 | Henry solubility constant Hcp at 293 K ([2]; reference: Chiang et al. (1998)): 0.0025 | Henry solubility constant Hcp at 293 K [2, 3]: 0.0052

c1ccc2ccccc2c1 [naphthalene]
Henry solubility constant Hcp ([1]; reference: Alaee et al. (1996)): 0.023 | Henry solubility constant Hcp ([1]; reference: Bobadilla et al. (2003)): 0.04 | Henry solubility constant Hcp ([1]; reference: Mackay et al. (1979)): 0.02 | Henry solubility constant Hcp ([1]; reference: Schwarz and Wasik (1977)): 0.022 | Henry solubility constant Hcp ([1]; reference: Southworth (1979)): 0.018 | Henry solubility constant Hcp ([1]; reference: Webster et al. (1985)): 0.026 | Henry solubility constant Hcp at 293 K [2, 4]: 0.022 | Henry solubility constant Hcp at 293 K [2, 3]: 0.027

FC(F)(Cl)Cl [dichlorodifluoromethane]
Henry solubility constant Hcp ([1]; reference: Munz and Roberts (1987)): 3.1e-05 | Henry solubility constant Hcp ([1]; reference: Park et al. (1982)): 2.9e-05 | Henry solubility constant Hcp ([1]; reference: Reichl (1995)): 3e-05 | Henry solubility constant Hcp ([1]; reference: Scharlin and Battino (1994)): 2.9e-05 | Henry solubility constant Hcp ([1]; reference: Scharlin and Battino (1995)): 2.9e-05 | Henry solubility constant Hcp ([1]; reference: Warner and Weiss (1985)): 2.9e-05 | Henry solubility constant Hcp at 293 K ([2]; reference: Pearson and McConnell (1975)): 2.5e-05

OCCO [1,2-ethanediol]
Henry solubility constant Hcp ([1]; reference: Butler and Ramchandani (1935)): 160 | Henry solubility constant Hcp at 293 K ([2]; reference: Bone et al. (1983)): 4000

CCCOP(=O)(OCCC)OCCC [tripropyl phosphate]
Henry solubility constant Hcp at 293 K [2, 5]: 15

Cc1ccc2ccccc2c1 [2-methylnaphthalene]
Henry solubility constant Hcp at 293 K [2, 4]: 0.022

CCOP(=O)(OCC)OCC [triethylphosphate]
Henry solubility constant Hcp at 293 K [2, 5]: 270

COP(=O)(OC)OC [phosphoric acid, trimethyl ester]
Henry solubility constant Hcp at 293 K [2, 5]: 1400

CCCC(=O)OO[N+](=O)[O-] [nitro butaneperoxoate]
Henry solubility constant Hcp at 293 K [2, 6]: 0.023

CC(C)C(=O)OO[N+](=O)[O-] [peroxy-isobutyryl nitrate]
Henry solubility constant Hcp at 293 K [2, 6]: 0.0099

c1ccc2c(c1)-c1cccc3cccc-2c13 [benzo[jk]fluorene]
Henry solubility constant Hcp at 293 K [2, 4]: 0.91

CCOP(=S)(OCC)Oc1nc(Cl)c(Cl)cc1Cl [chlorpyrifos]
Henry solubility constant Hcp at 293 K ([2]; reference: Rice et al. (1997b)): 3.1

COC(=O)CCC(=O)OC [butanedioic acid, dimethyl ester]
Henry solubility constant Hcp ([1]; reference: Katrib et al. (2003)): 30

CNC(C)=O [N-methylacetamide]
Henry solubility constant Hcp ([1]; reference: Bernauer and Dohnal (2008)): 3200

C=CC(=C)CCC=C(C)C [7-methyl-3-methylene-1,6-octadiene]
Henry solubility constant Hcp ([1]; reference: Fichan et al. (1999)): 0.00087 | Henry solubility constant Hcp [1, 7]: 0.00036

Clc1ccc(-c2c(Cl)ccc(Cl)c2Cl)cc1Cl [2,3,3',4',6-pentachlorobiphenyl]
Henry solubility constant Hcp [1, 8]: 0.027

Clc1cccc(-c2ccccc2Cl)c1 [2,3'-dichlorobiphenyl]
Henry solubility constant Hcp [1, 8]: 0.047

Clc1ccccc1-c1c(Cl)cccc1Cl [2,2',6-trichlorobiphenyl]
Henry solubility constant Hcp [1, 8]: 0.047

Clc1ccc(Cl)c(-c2cc(Cl)c(Cl)c(Cl)c2Cl)c1 [2,2',3,4,5,5'-hexachlorobiphenyl]
Henry solubility constant Hcp [1, 8]: 0.025

O=C(O)C(F)(F)C(F)(F)C(F)(F)C(F)(F)F [perfluoropentanoic acid]
Henry solubility constant Hcp ([1]; reference: Kwan (2001)): 0.67

NCCCCCCN [1,6-hexanediamine]
Henry solubility constant Hcp ([1]; reference: Nguyen (2013)): 1000

O=CCCCC=O [pentanedial]
Henry solubility constant Hcp ([1]; reference: Olson (1998)): 300

CC(C)CO [2-methyl-1-propanol]
Henry solubility constant Hcp ([1]; reference: Butler et al. (1935)): 0.83 | Henry solubility constant Hcp ([1]; reference: Snider and Dawson (1985)): 1

CN(C)C [trimethylamine]
Henry solubility constant Hcp ([1]; reference: Amoore and Buttery (1978)): 0.076 | Henry solubility constant Hcp ([1]; reference: Christie and Crisp (1967)): 0.095 | Henry solubility constant Hcp ([1]; reference: Leng et al. (2015a)): 0.084

CC/C=C/C[C@@H]1C(=O)CC[C@H]1CC(=O)OC [methyl jasmonate]
Henry solubility constant Hcp ([1]; reference: Karl et al. (2008)): 50

CC(=O)C(=O)O [2-oxopropanoic acid]
Henry solubility constant Hcp ([1]; reference: Khan and Brimblecombe (1992)): 3100 | Henry solubility constant Hcp ([1]; reference: Khan et al. (1992)): 3100 | Henry solubility constant Hcp ([1]; reference: Khan et al. (1995)): 3100

COC(=O)C(F)(F)F [trifluoroethanoic acid, methyl ester]
Henry solubility constant Hcp ([1]; reference: Kutsuna et al. (2004)): 0.0012

C=CC [propene]
Henry solubility constant Hcp ([1]; reference: Maaßen (1995)): 5.4e-05 | Henry solubility constant Hcp ([1]; reference: Reichl (1995)): 5.4e-05

Clc1ccc(-c2ccccc2Cl)cc1Cl [2,3',4'-trichlorobiphenyl]
Henry solubility constant Hcp [1, 8]: 0.066 | Henry solubility constant Hcp ([1]; reference: Westcott et al. (1981)): 0.025

OCC(F)(F)C(F)F [2,2,3,3-tetrafluoro-1-propanol]
Henry solubility constant Hcp ([1]; reference: Chen et al. (2003)): 1.4 | Henry solubility constant Hcp [1, 9]: 1.6

FC(F)(F)CCl [2-chloro-1,1,1-trifluoroethane]
Henry solubility constant Hcp ([1]; reference: Maaßen (1995)): 0.00037 | Henry solubility constant Hcp ([1]; reference: Reichl (1995)): 0.00041

CCCCCC/C=C/C=O [(E)-2-nonenal]
Henry solubility constant Hcp ([1]; reference: Roberts and Pollien (1997)): 0.058

Cc1cc(C)cc(O)c1 [1-hydroxy-3,5-dimethylbenzene]
Henry solubility constant Hcp ([1]; reference: Dohnal and Fenclová (1995)): 16

CCCCOCCOCCO [3,6-dioxa-1-decanol]
Henry solubility constant Hcp ([1]; reference: Kim et al. (2000)): 1400

O=C(O)CF [fluoroethanoic acid]
Henry solubility constant Hcp ([1]; reference: Bowden et al. (1998a)): 800

O=Cc1ccccc1 [benzaldehyde]
Henry solubility constant Hcp ([1]; reference: Allen et al. (1998)): 0.35 | Henry solubility constant Hcp ([1]; reference: Allou et al. (2011)): 0.32 | Henry solubility constant Hcp ([1]; reference: Souchon et al. (2004)): 0.34

Clc1ccc(-c2ccc(Cl)c(Cl)c2)cc1Cl [3,3',4,4'-tetrachlorobiphenyl]
Henry solubility constant Hcp [1, 10]: 0.029

C=C(C)[C@@H]1CC=C(C)CC1 [(S)-1-methyl-4-(1-methylethenyl)-cyclohexene]
Henry solubility constant Hcp ([1]; reference: Copolovici and Niinemets (2005)): 0.00035 | Henry solubility constant Hcp [1, 7]: 0.00037

Clc1ccc(-c2cc(Cl)ccc2Cl)cc1 [2,4',5-trichlorobiphenyl]
Henry solubility constant Hcp [1, 8]: 0.049

COc1cc(CCC(C)=O)ccc1O [zingerone]
Henry solubility constant Hcp ([1]; reference: McFall et al. (2020)): 12000

OCCC(F)(F)C(F)(F)C(F)(F)C(F)(F)C(F)(F)C(F)(F)F [1H,1H,2H,2H-perfluoro-1-octanol]
Henry solubility constant Hcp ([1]; reference: Goss et al. (2006)): 0.0015 | Henry solubility constant Hcp ([1]; reference: Lei et al. (2004)): 8.5e-05 | Henry solubility constant Hcp ([1]; reference: Wu and Chang (2011)): 0.00017

CC(C)C [2-methylpropane]
Henry solubility constant Hcp ([1]; reference: McAuliffe (1963)): 8.5e-06 | Henry solubility constant Hcp ([1]; reference: Mohebbi et al. (2012)): 0.00011 | Henry solubility constant Hcp ([1]; reference: Wetlaufer et al. (1964)): 9.9e-06

Clc1ccc(-c2cc(Cl)c(Cl)cc2Cl)cc1Cl [2,3',4,4',5-pentachlorobiphenyl]
Henry solubility constant Hcp [1, 10]: 0.018 | Henry solubility constant Hcp [1, 8]: 0.025

II [iodine (molecular)]
Henry solubility constant Hcp ([1]; reference: Eguchi et al. (1973)): 0.028

[2H][2H] [deuterium]
Henry solubility constant Hcp ([1]; reference: Muccitelli and Wen (1978)): 7.9e-06

Cc1cc(Cl)ccc1OCC(=O)O [(2-methyl-4-chlorophenoxy)acetic acid]
Henry solubility constant Hcp ([1]; reference: Mabury and Crosby (1996)): > 99

CC(C)CCC(C)C [2,5-dimethylhexane]
Henry solubility constant Hcp ([1]; reference: Dohányosová et al. (2004)): 2.4e-06

N#Cc1c(Cl)cccc1Cl [2,6-dichlorobenzenenitrile]
Henry solubility constant Hcp ([1]; reference: Schoene and Steinhanses (1985)): 0.48

CN(CCO)CCO [N-methyldiethanolamine]
Henry solubility constant Hcp ([1]; reference: Kim et al. (2008)): 400000 | Henry solubility constant Hcp ([1]; reference: Nguyen (2013)): 3900

CCSCC [diethyl sulfide]
Henry solubility constant Hcp ([1]; reference: Schuhfried et al. (2011)): 0.0035

FN(F)F [nitrogen trifluoride]
Henry solubility constant Hcp ([1]; reference: Ashton et al. (1968)): 7.8e-06 | Henry solubility constant Hcp ([1]; reference: Dean et al. (1973)): 7.7e-06

CCCCCO[N+](=O)[O-] [1-pentyl nitrate]
Henry solubility constant Hcp ([1]; reference: Hauff et al. (1998)): 0.0066

[He] [helium]
Henry solubility constant Hcp ([1]; reference: Cady et al. (1922)): 3.7e-06 | Henry solubility constant Hcp ([1]; reference: Friedman (1954)): 3.8e-06 | Henry solubility constant Hcp ([1]; reference: Krause and Benson (1989)): 3.9e-06 | Henry solubility constant Hcp ([1]; reference: Lannung (1930)): 3.8e-06 | Henry solubility constant Hcp ([1]; reference: Morrison and Johnstone (1954)): 3.7e-06 | Henry solubility constant Hcp ([1]; reference: von Antropoff (1910)): 6.3e-06

CC(C)(C)Cl [2-chloro-2-methylpropane]
Henry solubility constant Hcp ([1]; reference: Clarke et al. (1962)): 0.00016

ClN(Cl)Cl [nitrogen trichloride]
Henry solubility constant Hcp ([1]; reference: Holzwarth et al. (1984)): 0.00099

C[CH2][Pb]([CH2]C)([CH2]C)[CH2]C [tetraethyl lead]
Henry solubility constant Hcp ([1]; reference: Feldhake and Stevens (1963)): 1.3e-05

OC(C(F)(F)F)C(F)(F)F [1,1,1,3,3,3-hexafluoro-2-propanol]
Henry solubility constant Hcp [1, 9]: 0.24

Clc1cc(-c2ccc(Cl)c(Cl)c2Cl)cc(Cl)c1Cl [2,3,3',4,4',5'-hexachlorobiphenyl]
Henry solubility constant Hcp [1, 8]: 0.017

ClCC(Cl)CCl [1,2,3-trichloropropane]
Henry solubility constant Hcp ([1]; reference: Tancrède and Yanagisawa (1990)): 0.044
